IC50 data for 17 molecules are collected here from US12692261B2, “Substituted heterocyclic compounds and therapeutic uses thereof” (Bayer Aktiengesellschaft, priority 2020, dated 2026).

Read-outs that look alike come from different tables or passages of the source.

The target of test [1] is T1, full-length human CSNK1A1 (Homo sapiens, UniProt P48729).
T1 construct: N-terminal Glutathion-S-Transferase (GST) and full-length human CSNK1A1; purchased Life Technologies PV4174; host or cells: baculovirus infected insect cells
Description: CSNK1A1 Assay 2 (ADP-Glo, 1 μM ATP, substrate biotin-Ahx-KRRRAL-pS-VASLPGL). It is filed as biochemical. As to conditions: Table 3, read-out: CSNK1A1 Assay 2 IC50 [mol/l] (median). The gist of the method:
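Activity read as ADP generated (ADP-Glo luciferase luminescence, 1 h detection steps at 22 °C). Enzyme was insect-cell-expressed GST–full-length human CSNK1A1, compound-preincubated 15 min before reaction with phosphopeptide substrate and 1 μM ATP in 50 mM HEPES pH 7.5, 10 mM MgCl2.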
For orientation: ADP-Glo first removes unused ATP, then detects ADP through luciferase.

Test [2] concerns the target T2, wild-type Epidermal Growth Factor Receptor (EGFR) (Homo sapiens, UniProt P00533).
T2 construct: a fragment of human EGFR (amino acids R669 to A1210); made in house; host or cells: Sf9 insect cells
Description: WT-EGFR Kinase Assay (TR-FRET, 2 mM ATP). It counts as biochemical. The method in brief: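 GST-fused human EGFR fragment (R669-A1210) from Sf9 cells, typically 7.6 pg/μL, pre-incubated with compound 15 min at 22° C in Hepes pH 7.0 buffer with MgCl2, DTT and vanadate; biotinylated peptide substrate. After EDTA stop, phosphopeptide detected by TR-FRET (anti-phosphotyrosine Tb-cryptate/streptavidin-XL665), 665/620 nm emission ratio.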

Setting [3] is: EGFR Wildtyp 2 mM ATP IC50 [mol/l] (median), Table 4.
[4] abbreviates: read-out: EGFR Wildtyp 2 mM ATP IC50 [mol/l] (median), Table 4.

T2 sequence (P00533 669-1210): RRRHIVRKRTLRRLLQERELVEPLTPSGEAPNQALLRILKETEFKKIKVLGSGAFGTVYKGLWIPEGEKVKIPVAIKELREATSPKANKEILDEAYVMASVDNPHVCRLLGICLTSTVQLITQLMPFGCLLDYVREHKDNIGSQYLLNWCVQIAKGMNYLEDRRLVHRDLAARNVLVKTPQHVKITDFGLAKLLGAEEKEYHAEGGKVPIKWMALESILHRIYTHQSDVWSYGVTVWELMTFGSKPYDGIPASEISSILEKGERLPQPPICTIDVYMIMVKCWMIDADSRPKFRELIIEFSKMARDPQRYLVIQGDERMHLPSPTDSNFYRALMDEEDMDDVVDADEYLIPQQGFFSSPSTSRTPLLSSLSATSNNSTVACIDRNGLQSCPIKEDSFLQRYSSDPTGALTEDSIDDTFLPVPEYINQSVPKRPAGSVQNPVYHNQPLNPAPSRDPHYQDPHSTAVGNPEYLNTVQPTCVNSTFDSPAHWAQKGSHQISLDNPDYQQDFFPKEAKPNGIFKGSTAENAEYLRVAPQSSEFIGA
T1 sequence (P48729 whole entry): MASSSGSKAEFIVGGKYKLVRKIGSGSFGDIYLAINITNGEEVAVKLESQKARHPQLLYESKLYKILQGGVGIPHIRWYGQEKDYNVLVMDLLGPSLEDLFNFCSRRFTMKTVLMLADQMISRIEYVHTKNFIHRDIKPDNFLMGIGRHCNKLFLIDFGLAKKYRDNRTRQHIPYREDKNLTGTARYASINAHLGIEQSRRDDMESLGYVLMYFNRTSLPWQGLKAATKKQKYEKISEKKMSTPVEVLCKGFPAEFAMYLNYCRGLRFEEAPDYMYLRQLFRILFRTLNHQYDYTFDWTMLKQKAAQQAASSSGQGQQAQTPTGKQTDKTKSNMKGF

In the case of `Cc1cnc2c(-c3ccccn3)c(-c3ccnc(NC(=O)C(CC(F)F)c4ccc(F)cc4)c3)[nH]c2n1` (single isomer, unassigned; (+)) [Example 86, (+)-4,4-difluoro-2-(4-fluorophenyl)-N-{4-[3-methyl-7-(pyridin-2-yl)-5H-pyrrolo[2,3-b]pyrazin-6-yl]pyridin-2-yl}butanamide], the IC50 was 2.89 nM in test [1] and greater than 20000 nM in test [2] (setting [3]).
Consider `Cc1cnc2c(-c3ccccn3)c(-c3ccnc(NC(=O)C(CC(F)F)c4ccc(F)cc4)c3)[nH]c2n1` (stereo not shown) [Example 85, 4,4-difluoro-2-(4-fluorophenyl)-N-{4-[3-methyl-7-(pyridin-2-yl)-5H-pyrrolo[2,3-b]pyrazin-6-yl]pyridin-2-yl}butanamide], for which the IC50 in test [1] was 4.21 nM; in test [2] (setting [3]), greater than 20000 nM.
For `O=C(Nc1cc(-c2[nH]c3ccc(F)nc3c2-c2ccccn2)ccn1)C(CC(F)F)c1ccc(F)cc1` (racemic) [Example 1, 4,4-difluoro-2-(4-fluorophenyl)-N-{4-[5-fluoro-3-(pyridin-2-yl)-1H-pyrrolo[3,2-b]pyridin-2-yl]pyridin-2-yl}butanamide] the same measures were 10.1 nM and greater than 20000 nM.
The matching figures for `O=C(Nc1cc(-c2[nH]c3ccnnc3c2-c2ccccn2)ccn1)C(CC(F)F)c1ccc(F)cc1` (racemic) [Example 65, (2RS)-4,4-difluoro-2-(4-fluorophenyl)-N-{4-[7-(pyridin-2-yl)-5H-pyrrolo[3,2-c]pyridazin-6-yl]pyridin-2-yl}butanamide]: 2.75 nM and greater than 20000 nM.
Regarding `COc1cnc2c(-c3ccccn3)c(-c3ccnc(NC(=O)C(CC(F)F)c4ccc(F)cc4)c3)[nH]c2c1` (single isomer, unassigned) [Example 83, 4,4-difluoro-2-(4-fluorophenyl)-N-{4-[6-methoxy-3-(pyridin-2-yl)-1H-pyrrolo[3,2-b]pyridin-2-yl]pyridin-2-yl}butanamide], the IC50 in test [1] is 9.86 nM; in test [2] (setting [4]), greater than 20000 nM.
For the molecule `O=C(Nc1cc(-c2[nH]c3nc(F)cnc3c2-c2ccccn2)ccn1)C(CC(F)F)c1ccc(F)cc1` (racemic) [Example 60, (2RS)-4,4-difluoro-2-(4-fluorophenyl)-N-{4-[3-fluoro-7-(pyridin-2-yl)-5H-pyrrolo[2,3-b]pyrazin-6-yl]pyridin-2-yl}butanamide], the IC50 in test [1] is 5.81 nM; in test [2] (setting [3]), greater than 20000 nM.
For `O=C(Nc1cc(-c2[nH]c3c(O[C@H]4CCOC4)ncnc3c2-c2ccccn2)ccn1)C(CC(F)F)c1ccc(F)cc1` (mixture of isomers) [Example 72, (2RS)-4,4-difluoro-2-(4-fluorophenyl)-N-{4-[4-{[(3S)-oxolan-3-yl]oxy}-7-(pyridin-2-yl)-5H-pyrrolo[3,2-d]pyrimidin-6-yl]pyridin-2-yl}butanamide] the same measures were 7.1 nM and greater than 20000 nM.
For `COc1cnc2c(-c3ccccn3)c(-c3ccnc(NC(=O)C(CC(F)F)c4ccc(F)cc4)c3)[nH]c2c1` (stereo not shown) [Example 81, 4,4-difluoro-2-(4-fluorophenyl)-N-{4-[6-methoxy-3-(pyridin-2-yl)-1H-pyrrolo[3,2-b]pyridin-2-yl]pyridin-2-yl}butanamide] the same measures were 4.02 nM and greater than 20000 nM.
`O=C(Nc1cc(-c2[nH]c3c(O[C@H]4CCOC4)ncnc3c2-c2ccccn2)ccn1)C(CC(F)F)c1ccc(F)cc1` (single isomer, unassigned) [Example 74, (2R or S)-4,4-difluoro-2-(4-fluorophenyl)-N-{4-[4-{[(3S)-oxolan-3-yl]oxy}-7-(pyridin-2-yl)-5H-pyrrolo[3,2-d]pyrimidin-6-yl]pyridin-2-yl}butanamide]: the IC50 in test [1] is 35.8 nM; in test [2] (setting [4]), greater than 20000 nM.
`O=C(Nc1cc(-c2[nH]c3ncc(F)nc3c2-c2ccccn2)ccn1)C(CC(F)F)c1ccc(F)cc1` (single isomer, unassigned) [Example 63, (2R or S)-4,4-difluoro-2-(4-fluorophenyl)-N-{4-[2-fluoro-7-(pyridin-2-yl)-5H-pyrrolo[2,3-b]pyrazin-6-yl]pyridin-2-yl}butanamide]: the figures for the IC50 in test [1] and in test [2] (setting [3]) were 1.48 nM and greater than 20000 nM, respectively.
`O=C(Nc1cc(-c2[nH]c3c(OCC(F)F)ncnc3c2-c2ccccn2)ccn1)C(CC(F)F)c1ccc(F)cc1` (single isomer, unassigned) [Example 79, (2R or S)—N-{4-[4-(2,2-difluoroethoxy)-7-(pyridin-2-yl)-5H-pyrrolo[3,2-d]pyrimidin-6-yl]pyridin-2-yl}-4,4-difluoro-2-(4-fluorophenyl)butanamide]: the figures for the IC50 in test [1] and in test [2] (setting [3]) were 3.1 nM and greater than 20000 nM, respectively.
For `O=C(Nc1cc(-c2[nH]c3c(O[C@H]4CCOC4)cc(F)nc3c2-c2ccccn2)ccn1)C(CC(F)F)c1ccc(F)cc1` (single isomer, unassigned) [Example 54, (2R or S)-4,4-difluoro-N-{4-[5-fluoro-7-{[(3S)-oxolan-3-yl]oxy}-3-(pyridin-2-yl)-1H-pyrrolo[3,2-b]pyridin-2-yl]pyridin-2-yl}-2-(4-fluorophenyl)butanamide] the same measures were 4.22 nM and greater than 20000 nM.
The matching figures for `COc1cnc2c(-c3ccccn3)c(-c3ccnc(NC(=O)C(CC(F)F)c4ccc(F)cc4)c3)[nH]c2c1` (single isomer, unassigned) [Example 82, 4,4-difluoro-2-(4-fluorophenyl)-N-{4-[6-methoxy-3-(pyridin-2-yl)-1H-pyrrolo[3,2-b]pyridin-2-yl]pyridin-2-yl}butanamide]: 2.68 nM and greater than 20000 nM.
The matching figures for `O=C(Nc1cc(-c2[nH]c3ccc(Cl)nc3c2-c2ccccn2)ccn1)C(CC(F)F)c1ccc(F)cc1` (racemic) [Example 70, (2RS)—N-{4-[5-chloro-3-(pyridin-2-yl)-1H-pyrrolo[3,2-b]pyridin-2-yl]pyridin-2-yl}-4,4-difluoro-2-(4-fluorophenyl)butanamide]: 5.43 nM and greater than 20000 nM.
For the molecule `O=C(Nc1cc(-c2[nH]c3c(OC[C@@H]4COCCO4)cc(F)nc3c2-c2ccccn2)ccn1)C(CC(F)F)c1ccc(F)cc1` (single isomer, unassigned) [Example 58, (2R or S)—N-{4-[7-{[(2S)-1,4-dioxan-2-yl]methoxy}-5-fluoro-3-(pyridin-2-yl)-1H-pyrrolo[3,2-b]pyridin-2-yl]pyridin-2-yl}-4,4-difluoro-2-(4-fluorophenyl)butanamide], the figures for the IC50 in test [1] and in test [2] (setting [3]) were 3.56 nM and greater than 20000 nM, respectively.
The matching figures for `O=C(Nc1cc(-c2[nH]c3c(OCC(F)F)ncnc3c2-c2ccccn2)ccn1)C(CC(F)F)c1ccc(F)cc1` (racemic) [Example 78, (2RS)—N-{4-[4-(2,2-difluoroethoxy)-7-(pyridin-2-yl)-5H-pyrrolo[3,2-d]pyrimidin-6-yl]pyridin-2-yl}-4,4-difluoro-2-(4-fluorophenyl)butanamide]: 5.16 nM and greater than 20000 nM.
For `O=C(Nc1cc(-c2[nH]c3c(OCC4CCCO4)cc(F)nc3c2-c2ccccn2)ccn1)C(CC(F)F)c1ccc(F)cc1` (racemic) [Example 61, (2RS)-4,4-difluoro-N-{4-[5-fluoro-7-{[(2RS)-oxolan-2-yl]methoxy}-3-(pyridin-2-yl)-1H-pyrrolo[3,2-b]pyridin-2-yl]pyridin-2-yl}-2-(4-fluorophenyl)butanamide] the same measures were 11.1 nM and greater than 20000 nM.
